The nature of data set [1]: Variable temperature 1H-NMR of E/Z interconversion. It is filed as physicochemical. To be noted: DMF-d7, coalescence at 45° C. An excerpt:
A rapid and efficient synthesis of the desired photoactivatable probe starting with commercially available 2-cyanopyridine (FIG. 52). 2-cyanopyridine was elaborated to thioketone A using methods similar to those previously reported (Rarig et al., 2013, J. Am. Chem. Soc. 135: 9213-9219, which is incorporated by reference in its entirety for all purposes). Homocoupling of A, using copper powder in toluene under refluxing conditions, yielded 1,1′-diazaxanthilidene 10 as an interconverting mixture of E and Z isomers in 84% yield (FIG. 43). Methylation of 10 with dimethyl sulfate afforded the desired monomethylated product 11-E/11-Z in 96% yield. The overall yield of the probe from commercial starting materials after 6 steps was 24% (FIGS. 43 and 52). Single crystals of 10-E and 11-Z were obtained by slow evaporation from chloroform:methanol (1:1) and water, respectively. […] Variable temperature ^1H-NMR (J. Sandström, 1982, Dynamic NMR spectroscopy, Academic Press, London, New York) of 10-E/10-Z in deuterated N,N-dimethylformamide confirmed the dynamic interconversion of the E and Z isomers at room temperature.

The subject of data set [2] is mitochondria of HeLa cells. Briefly: Co-staining with mitotracker red, Pearson colocalization correlation. Format: cell-based. On the procedure:
(§1) Pearson correlations were done after co-staining with mitotracker or lysotracker to evaluate specificity.
(§2) Confirmation of the supposed lysosome and mitochondria staining was achieved by doing co-staining experiments with Lysotacker Red™ and Mitortracker Red™, respectively. A Pearson colocalization correlation (PCC) of 0.75 was determined from a costaining experiments in which HeLa cells were incubated with E/Z-2 and Lysotracker. The imperfect correlation is due to higher specificity for a subset of vesicles stained by the Lysotracker.

The test system of data set [3] is HeLa cells. Briefly: One-hundred-time-point timelapse microscopy (photostability / resistance to photobleaching). It is filed as cell-based. The settings on record: for decrease in intensity after 100 scans: 300 ms/scan, HeLa cells; for photostability compared with commercial dyes: vs Lysotracker Red / Mitotracker Red, 100 laser pulses of 300 ms; for loss of intensity over 100 scans: 100 pulses of 300 ms, maximum intensity of the image tracked. Here is the method:
One-hundred-time-point microscopy experiments were performed to evaluate photostability and/or resistance to photobleaching in comparison with the commercial dyes of lysotracker and mitotracker. […] For these experiments, each sample was pulsed 100 times for 300 ms and the maximum intensity of the image was tracked over time. […] Mitotracker was more robust than lysotracker, losing only 34% of its intensity over the 100 scans, while compound 3 lost only ˜13%. The most robust dye discovered thus far is monomethylated-3 (Me-3), which lost only ˜5% of its intensity over 100 scans.
This was determined via one-hundred-time-point timelapse microscopy experiments in which the […] intensity of the image was monitored over 100 laser pulses of 300 ms (FIG. 42).
To investigate photostability of 2 and 3, timelapse microscopy experiments were carried out.

Data set [4] relates to HeLa cells. Briefly: Toxicity to HeLa cells on a 24 h timescale (live-cell imaging).
Data set [5] relates to HeLa cells. Briefly: Confocal microscopy of stained live HeLa cells (subcellular localization, cell permeability). The settings on record: for staining specificity / subcellular localization: confocal microscopy.
From the text: (§3) Confocal microscopy was done on a Yokogawa spinning disk inverted microscope with a 100× lens. Each batch of stained cells was imaged by exciting with a 488 nm laser while observing at 503-545 nm (the green overlay images), exciting with a 561 nm laser while observing at 583-650 nm (the red overlay images), and by DIC (the grey images) (FIG. 8).
(§4) A 444 nm excitation was required to image with compounds 2 and 3 (FIG. 18).
Data set [6] deals with HeLa cells.
Data set [7] in a line: Photophysical properties (absorption, emission, extinction coefficient, quantum yield). It is filed as physicochemical. The text has this: n-Butyllithium in hexanes was purchased from Acros and titrated with diphenylacetic acid, which was recrystallized from toluene. All other reagents were purchased from Sigma Aldrich and used without further purification. Solvents were purchased from either Sigma Aldrich or Fisher Scientific. Anhydrous solvents were purchased from Fisher Scientific and dried by passing through an alumina column of a solvent purification system. Silica gel (230-400 mesh) used for column chromatography was purchased from Silicycle. Thin layer chromatography plates (250 μm thickness) were purchased from Sorbent Technologies. Revered-phase column chromatography was done using a RediSep Rf Gold C18 column on a Teledyne Isco CombiFlash Rf system. High-performance liquid chromatography (HPLC) was performed on a Jasco HPLC system using a Phenomenex column (Luna 5u C18(2) 100A; 250×4.60 mm, 5 micron). UV absorption spectra were obtained on a Jasco V-650 spectrophotometer using a 1 cm path length quartz cuvette. Fluorescence emission spectra were taken on a Horiba Jobin-Yvon FluoroLog using a 1 cm path length fluorescence quartz cuvette. ^1H-NMR and ^13C-NMR were recorded on either a Bruker DMX 500 (500 MHz) or a Bruker AVII 500 (500 MHz). High-resolution mass spectrometry was performed using a Waters LCT Premier XE Mass Spectrometer (model KE 332). […] was performed using a Bruker APEX2-DUO CCD X-ray Diffractometer. Photoreactions were carried out in a Rayonet Photochemical Reactor (model RPR-100). Quantum yield was determined by serial dilution method using coumarine 153 (in ethanol, Φ=0.38) and fluorescein (in NaOH 0.1 M, Φ=0.95) as standards (Yvon, A guide to recording Fluorescence Quantum Yields, http://www.horiba.com/fileadmin/uploads/Scientific/Documents/Fluorescence/quantumyie ldstrad.pdf, accessed Jul. 13, 2014; Brouwer, 2011, Pure Appl. Chem. 83: 2213-2228)

Data set [8] has as its system HeLa cells. The source holds these as a separate data set.
From the text: as §3, §4
The subject of a further data set is lysosomes of HeLa cells. Description: Co-staining with lysotracker red, Pearson colocalization correlation. It is filed as cell-based. On the procedure:
as §1, §2

The conditions of data set [9]: in ethanol; cited from earlier work.

SMILES strings stand for the structures. “Also recorded” adds a separate entry of the source. Read-outs that look alike come from different tables or passages of the source.

From the text for Solubility (DMSO, water): Water solubility would then be evaluated first by simply doing an aqueous extraction.

In the case of `c1ccc2c(c1)Oc1cccnc1/C2=C1\c2ccccc2Oc2cccnc21` (racemic) [10-E/10-Z, 1,1′-diazaxanthilidene], the “activation energy ΔG‡ of E/Z interconversion” value in [1] is 15.7 kcal/mol.

Regarding `c1ccc2c(c1)Oc1cnccc1/C2=C1\c2ccccc2Oc2cnccc21` (racemic) [E/Z-1, 3,3′-diazaxanthylidene], the “solubility in DMSO” value in “Solubility (DMSO, water)” (DMSO) was “poor solubility”.

Regarding `c1ccc2c(c1)oc1cncc3c4cccc5oc6cnccc6c(c54)c2c13` [Compound 2, chromeno[2,3,4-de]pyrido[3′,4′:2,3]chromeno[4,5-gh]isoquinoline;2,9-diaza-benzo[1,2,3-kl:6,5,4-k′l′]dixanthene], in [2], the “Pearson correlation with mitotracker red” value is 0.75. For the same molecule, in the data set on HeLa cells [3], the “decrease in intensity after 100 scans” value is listed as “only a slight decrease in intensity” and the “photostability compared with commercial dyes” value is “superior”. The “toxicity to HeLa cells” value in the data set on HeLa cells [4] is listed as “non-toxic”. Moreover, in the data set on HeLa cells [5], the cell permeability result was “cell permeable; also recorded: cell-permeable”; the “staining specificity / subcellular localization” value was “staining mitochondria; also recorded: selectively stain mitochondria rather than the nucleus; also recorded: mitochondria-specific dyes; also recorded: localize primarily in the mitochondria; also recorded: stains mitochondria and additional structures”.

As to `c1cc2oc3cnccc3c3c2c(c1)c1cccc2oc4cnccc4c3c21` [Compound 3, 9,14-diaza-benzo[1,2,3-kl:6,5,4-k′l′]dixanthene], in data set [2], the “Pearson correlation with mitotracker red” value came to 0.75. In the data set on HeLa cells [3], the “loss of intensity over 100 scans” value is reported as about 13% and the “decrease in intensity after 100 scans” value was “only a slight decrease in intensity”. For the same molecule, the “toxicity to HeLa cells” value with HeLa cells [6] is “non-toxic”.

`C[n+]1cccc2oc3cccc4c5cccc6oc7cccnc7c(c65)c(c34)c21` [Compound 12]: the Stokes shift in data set [7] came to 108 nm. Further, in [7] (in water), the “Abs λmax” value came out at 504 nm and the “Em λmax” value was 612 nm. For the same molecule, in data set [7] (solvent: water), the “extinction coefficient ε” value amounted to 11496 M⁻¹ cm⁻¹ and the “quantum yield Φ” value is given as 0.100.

Turning to `C[n+]1ccc2c(c1)oc1cccc3c4c[n+](C)cc5oc6ccccc6c(c54)c2c13` [DiMe-2, 2,9-dimethylchromeno[2,3,4-de]pyrido[3′,4′:2,3]chromeno[4,5-gh]isoquinoline-2,9-diium], the water solubility result in “Solubility (DMSO, water)” is listed as “water-solubility”. For the same molecule, the “toxicity to HeLa cells” value in the data set with HeLa cells [4] is “non-toxic”. In the data set with HeLa cells [5], the cell permeability entry is listed as “cell permeable” and the “staining specificity / subcellular localization” value is given as “specific for punctuate organelles; also recorded: lysosomal subcellular specificity”.

As to `C[n+]1ccc2c(c1)oc1cccc3c4cccc5oc6c[n+](C)ccc6c(c54)c2c13` [DiMe-3, 9,14-dimethyl-9,14-diaza-benzo[1,2,3-kl:6,5,4-k′l′]dixanthene], the cell permeability entry in the data set with HeLa cells [8] is “cell permeable”. Besides, the “toxicity to HeLa cells” value in the data set on HeLa cells [6] was “non-toxic”. Also, in the data set on HeLa cells [5], the “staining specificity / subcellular localization” value is listed as “staining lysosomes; also recorded: specific for punctuate organelles; also recorded: lysosomal subcellular specificity”.

`C[n+]1ccc2c(c1)Oc1ccccc1/C2=C1/c2ccccc2Oc2c[n+](C)ccc21` [DiMe-E-1, (E)-3,3′-dimethyl-[5,5′-bichromeno[2,3-c]pyridinylidene]-3,3′-diium]: in the data set with HeLa cells [3], the “photostability compared with commercial dyes” value is recorded as “superior”. The water solubility result in the data set “Solubility (DMSO, water)” was “water-solubility”. The “toxicity to HeLa cells” value with HeLa cells [4] was “non-toxic”. Moreover, in the data set with HeLa cells [5], the cell permeability result was “cell permeable” and the “staining specificity / subcellular localization” value is on record as “specific for punctuate organelles; also recorded: lysosomal subcellular specificity”.

For the molecule `C[n+]1ccc2c(c1)Oc1ccccc1/C2=C1\c2ccccc2Oc2c[n+](C)ccc21` [DiMe-Z-1, (Z)-N, N′-dimethyl-3,3′-diazaxanthylidene], the “photostability compared with commercial dyes” value in the data set with HeLa cells [3] is listed as “superior”. The water solubility result in “Solubility (DMSO, water)” was “water-solubility”. For the same molecule, the “toxicity to HeLa cells” value with HeLa cells [4] was “non-toxic”. Further, in the data set with HeLa cells [5], the cell permeability result is recorded as “cell permeable” and the “staining specificity / subcellular localization” value is reported as “specific for punctuate organelles; also recorded: lysosomal subcellular specificity”.

Consider `C[n+]1ccc2c(c1)Oc1ccccc1/C2=C1/c2ccccc2Oc2c[n+](C)ccc21` [E/Z-6], for which, in the data set on HeLa cells [5], the “staining specificity / subcellular localization” value is reported as “stains lysosomes”.

As to `C[n+]1ccc2c(c1)oc1cccc3c4cccc5oc6cnccc6c(c54)c2c13` [Me-3, 9-Me-9,14-diaza-benzo[1,2,3-kl:6,5,4-k′l′]dixanthene], the “Pearson correlation with lysotracker red” value with lysosomes of HeLa cells is reported as 0.25. Further, in the data set on HeLa cells [3], the “loss of intensity over 100 scans” value was about 5%.

`C[n+]1ccc2c(c1)Oc1ccccc1/C2=C1/c2ccccc2Oc2cnccc21` [Me-E-1, (E)-2-methyl-[5,5′-bichromeno[2,3-c]pyridinylidene]-2-ium]: in the data set with lysosomes of HeLa cells, the “Pearson correlation with lysotracker red” value was 0.75. Moreover, in the data set with HeLa cells [3], the “loss of intensity over 100 scans” value is recorded as about 30%. The results for the “staining specificity / subcellular localization” value in the data set on HeLa cells [5], with HeLa cells [5] (listed as Me-1) and in the data set on HeLa cells [5] (listed as monomethylated 3,3′-DAXAZ) were “lysosome-specific stain”, “lysosome-specific stain” and “good lysosomal stain”, respectively.

Regarding `ClCc1ccc(C2=c3cc4c5c(c3Oc3c2cc2c6c3CCCN6CCC2)CCC[N+]=5CCC4)cc1.[Cl-]` [Mitotracker, reference compound], the “loss of intensity over 100 scans” value in the data set on HeLa cells [3] was 34%.

On to `O=c1cc(C(F)(F)F)c2cc3c4c(c2o1)CCCN4CCC3` [coumarine 153], for which, in data set [9], the “quantum yield Φ of standard” value is listed as 0.38.

`CN(C)CCNC(=O)CCc1ccc2n1[B-](F)(F)[N+]1=C(c3ccc[nH]3)C=CC1=C2` [lysotracker, reference compound]: the “loss of intensity over 100 scans” value in the data set with HeLa cells [3] is reported as 80%.

The values above are taken from patent publication US10487089B2, “Imaging agents and methods of identifying same” (The Trustees of the University of Pennsylvania, priority 2014, dated 2019).
